The results in this text go back to publication PMC10535710, “Beauvericin suppresses the proliferation and pulmonary metastasis of osteosarcoma by selectively inhibiting TGFBR2 pathway” (International Journal of Biological Sciences, 2023).

The target of assay [1] is T1, TGFBR2 K252R (Homo sapiens, UniProt P37173, K252R).
T1 construct: TGFBR2 K252R overexpression plasmid transfected into OS cells
The experiment in a line: DARTS (protection from pronase) in OS cells expressing the mutant. The format is cell-based.

Assay [2] addresses T2, TGFBR2 (Homo sapiens, UniProt P37173).
T2 construct: MST used recombinant human TGFBR2 ECD
T2 sequence (P37173 188-567 limits assumed): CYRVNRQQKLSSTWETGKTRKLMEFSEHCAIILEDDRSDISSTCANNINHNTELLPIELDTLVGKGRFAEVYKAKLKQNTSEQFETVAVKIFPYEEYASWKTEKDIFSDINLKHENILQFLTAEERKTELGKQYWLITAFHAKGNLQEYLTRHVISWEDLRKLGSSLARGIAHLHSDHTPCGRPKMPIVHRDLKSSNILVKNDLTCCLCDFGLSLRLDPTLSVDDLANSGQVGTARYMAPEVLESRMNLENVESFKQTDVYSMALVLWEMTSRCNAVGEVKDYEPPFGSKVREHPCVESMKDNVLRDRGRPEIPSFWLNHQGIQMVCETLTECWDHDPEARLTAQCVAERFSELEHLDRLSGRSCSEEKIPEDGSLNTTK
The assay can be described thus: TR-FRET LanthaScreen Eu Kinase Binding Assay (tracer […]; reported as kinase activity inhibition); supported by MST, DARTS on recombinant protein, CETSA.

T1 sequence (P37173 23-567 K252R): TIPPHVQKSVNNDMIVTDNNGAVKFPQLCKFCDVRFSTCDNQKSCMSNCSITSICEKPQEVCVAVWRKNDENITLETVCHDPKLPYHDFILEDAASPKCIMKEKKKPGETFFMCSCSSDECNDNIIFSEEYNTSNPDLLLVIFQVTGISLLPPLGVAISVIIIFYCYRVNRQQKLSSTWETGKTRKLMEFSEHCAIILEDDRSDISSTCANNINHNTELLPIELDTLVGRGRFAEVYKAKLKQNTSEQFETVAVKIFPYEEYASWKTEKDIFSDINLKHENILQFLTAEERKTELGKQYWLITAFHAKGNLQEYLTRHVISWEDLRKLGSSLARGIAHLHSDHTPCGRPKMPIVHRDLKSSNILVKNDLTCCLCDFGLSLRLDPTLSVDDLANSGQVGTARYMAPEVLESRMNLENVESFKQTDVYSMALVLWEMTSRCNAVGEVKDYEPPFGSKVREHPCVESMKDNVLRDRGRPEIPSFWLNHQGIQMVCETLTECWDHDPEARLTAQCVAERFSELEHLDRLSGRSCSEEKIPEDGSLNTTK

As for `CC(C)[C@H]1OC(=O)[C@H](Cc2ccccc2)N(C)C(=O)[C@@H](C(C)C)OC(=O)[C@H](Cc2ccccc2)N(C)C(=O)[C@@H](C(C)C)OC(=O)[C@H](Cc2ccccc2)N(C)C1=O` [BEA, beauvericin], the “DARTS (protection from pronase) in OS cells expressing the mutant” value in assay [1] is “BEA suppressed the pronase-induced degradation of TGFBR2^K252R (Figure S7A-B), indicating that BEA may bind to TGFBR2 at N332”. The IC50 in assay [2] is 1360 ± 210 nM.
